Patent publication US20260085082A1, “KDM1A INHIBITORS FOR THE TREATMENT OF DISEASE” (Imago Biosciences, Inc., priority 2022, published 2026)
Read-outs that look alike come from different tables or passages of the source.

Assays:
MV4;11 cells = experiment: Cell Titer-Glo Luminescent Cell Viability Assay, cell growth inhibition against MV4;11 cells; assay type: cell-based; conditions: Homo sapiens
Procedure: Cell growth inhibition against MV4;11 cells was confirmed for the synthetic compounds. The Cell Titer-Glo Luminescent Cell Viability Assay (Promega, USA) was used to determine the number of viable cells in culture based on quantitation of the ATP present, which signals the presence of metabolically active cells. This assay was run in a 96-well plate format arrayed in a 10-point dose curve, ranging from 0 to 50 μM with 4-fold dilutions for each compound. Cells are seeded on Day 0 at 3750 cells per well. At Day 5, a portion of each well is assayed for viability according to the Cell Titer-Glo protocol. Briefly, cells/plates were centrifuged at 1100×g for 5 minutes. 100 μL of media was removed from each well and replaced with 100 μL of CellTiter-Glo. The plates were shaken at room temperature for 10 minutes and measured on a luminescence plate reader. Another portion of each well from the Day 5 plate is used to seed a new 96 plate containing fresh compound and media set up in the equivalent 10-point dose curve array in order to continue the cell growth inhibition assay for another 5 days. A final timepoint is collected at Day 10 using the Cell Titer-Glo protocol. Luminescence was detected on an EnVision® Multilabel Plate Reader (Perkin Elmer, Waltham, Mass.) and IC50 determination was made using Graph Pad Prism software.

LSD1 = LSD1 (Homo sapiens, UniProt O60341); experiment: LSD1 10-dose IC50 fluorescence coupling enzyme assay (HRP/Amplex Red, resorufin); assay type: biochemical; conditions: 10 M histone H3(1-21)K4me2 peptide substrate; 3-fold serial dilution in duplicate starting at 100 μM
Procedure: Compounds were tested in a 10-dose IC50 mode fluorescence coupling enzyme assay with 3-fold serial dilution in duplicate starting at 100 μM. The production of FAD-dependent H2O2 as a result of demethylase activity of LSD1 on […] histone H3(1-21)K4me2 peptide substrate was measured by coupling with HRP and Amplex Red to yield resorufin (fluorescence measured at Ex/Em=535/590 nm on EnVision, Perkin Elmer).

[1] = MV4-11, MV4;11 cells, Day 10 (re-seeded at Day 5 with fresh compound), 10-point dose curve 0 to 50 μM, read-out: Cell Titer Glo IC50 (10 d)
[2] = MV4-11, 120 h, MV4;11 cells, Day 5, 10-point dose curve 0 to 50 μM, read-out: Cell Titer Glo IC50 (5 d)

| IC50 (LSD1) | IC50 (MV4;11 cells; [2]) | Compound | IC50 (MV4;11 cells; [1]) | IC50 (MV4;11 cells; MV4;11 cells, Day 10 (re-seeded at Day 5 with fresh compound), 10-point dose curve 0 to 50 μM, read-out: Cell Titer Glo IC50 (10 d)) |
| --- | --- | --- | --- | --- |
| < 0.5 µM |  | CN1CCN(c2ccc(-n3nc(C(=O)N4CCC[C@@H](N)C4)cc3-c3ccc(C#N)c(F)c3)cc2)CC1=O [Example 50, (R)-4-(3-(3-aminopiperidine-1-carbonyl)-1-(4-(4-methyl-3-oxopiperazin-1-yl)phenyl)-1H-pyrazol-5-yl)-2-fluorobenzonitrile] | < 0.5 µM |  |
| 1 to 10 µM |  | COC1CCN(c2ccc(-n3nc(C(=O)N4CCC[C@@H](N)C4)cc3-c3ccc(C#N)c(F)c3)nc2)CC1 [Example 53, (R)-4-(3-(3-aminopiperidine-1-carbonyl)-1-(5-(4-methoxypiperidin-1-yl)pyridin-2-yl)-1H-pyrazol-5-yl)-2-fluorobenzonitrile 2,2,2-trifluoroacetate] | < 0.5 µM |  |
| 1 to 10 µM |  | CN1CCN(c2ccc(-n3nc(C(=O)N4CCC[C@@H](N)C4)cc3-c3ccc(C#N)c(F)c3)nc2)CC1 [Example 54, (R)-4-(3-(3-aminopiperidine-1-carbonyl)-1-(5-(4-methylpiperazin-1-yl)pyridin-2-yl)-1H-pyrazol-5-yl)-2-fluorobenzonitrile 2,2,2-trifluoroacetate] | 1 to 10 µM |  |
| < 0.5 µM |  | COC1CCN(c2ccc(-n3nc(-c4ccc(C#N)c(F)c4)cc3C(=O)N3CCC[C@@H](N)C3)cc2)CC1 [Example 57, (R)-4-(5-(3-aminopiperidine-1-carbonyl)-1-(4-(4-methoxypiperidin-1-yl)phenyl)-1H-pyrazol-3-yl)-2-fluorobenzonitrile 2,2,2-trifluoroacetate] | 1 to 10 µM |  |
| < 0.5 µM |  | CN1CCN(c2ccc(-n3nc(-c4ccc(C#N)c(F)c4)cc3C(=O)N3CCC[C@@H](N)C3)cc2)CC1 [Example 58, (R)-4-(5-(3-aminopiperidine-1-carbonyl)-1-(4-(4-methylpiperazin-1-yl)phenyl)-1H-pyrazol-3-yl)-2-fluorobenzonitrile 2,2,2-trifluoroacetate] | < 0.5 µM |  |
| < 0.5 µM | 1 to 10 µM | CN1CCN(c2ccc(-n3nc(C(=O)N4CCC[C@H](N)C4)cc3-c3ccc(C#N)c(F)c3)cc2)CC1 [Example 59, (S)-4-(3-(3-aminopiperidine-1-carbonyl)-1-(4-(4-methylpiperazin-1-yl)phenyl)-1H-pyrazol-5-yl)-2-fluorobenzonitrile] | < 0.5 µM |  |
| < 0.5 µM | 0.5 to 1 µM | CN1CCN(c2ccc(-n3nc(C(=O)N4CCC[C@@H](N)C4)cc3-c3ccc(C#N)c(F)c3)cc2)CC1 [Example 60, (R)-4-(3-(3-aminopiperidine-1-carbonyl)-1-(4-(4-methylpiperazin-1-yl)phenyl)-1H-pyrazol-5-yl)-2-fluorobenzonitrile] | < 0.5 µM |  |
| < 0.5 µM | < 0.5 µM | N#Cc1ccc(-c2cc(C(=O)N3CCC[C@H](N)C3)nn2-c2ccc(N3CCCC3)cc2)cc1F [Example 61, (S)-4-(3-(3-aminopiperidine-1-carbonyl)-1-(4-(pyrrolidin-1-yl)phenyl)-1H-pyrazol-5-yl)-2-fluorobenzonitrile 2,2,2-trifluoroacetate] | < 0.5 µM |  |
| < 0.5 µM |  | N#Cc1ccc(-c2cc(C(=O)N3CCC[C@@H](N)C3)nn2-c2ccc(N3CCCC3)cc2)cc1F [Example 62, (R)-4-(3-(3-aminopiperidine-1-carbonyl)-1-(4-(pyrrolidin-1-yl)phenyl)-1H-pyrazol-5-yl)-2-fluorobenzonitrile 2,2,2-trifluoroacetate] | < 0.5 µM |  |
| < 0.5 µM | 0.5 to 1 µM | COC1CCN(c2ccc(-n3nc(C(=O)N4CCC[C@H](N)C4)cc3-c3ccc(C#N)c(F)c3)cc2)CC1 [Example 63, (S)-4-(3-(3-aminopiperidine-1-carbonyl)-1-(4-(4-methoxypiperidin-1-yl)phenyl)-1H-pyrazol-5-yl)-2-fluorobenzonitrile 2,2,2-trifluoroacetate] | < 0.5 µM |  |
| < 0.5 µM | 0.5 to 1 µM | Cn1cc(-c2ccc(-n3nc(C(=O)N4CCC[C@H](N)C4)cc3-c3ccc(C#N)c(F)c3)cc2)cn1 [Example 65, (S)-4-(3-(3-aminopiperidine-1-carbonyl)-1-(4-(1-methyl-1H-pyrazol-4-yl)phenyl)-1H-pyrazol-5-yl)-2-fluorobenzonitrile 2,2,2-trifluoroacetate] | < 0.5 µM |  |
| < 0.5 µM |  | Cn1cc(-c2ccc(-n3nc(C(=O)N4CCC[C@@H](N)C4)cc3-c3ccc(C#N)c(F)c3)cc2)cn1 [Example 66, (R)-4-(3-(3-aminopiperidine-1-carbonyl)-1-(4-(1-methyl-1H-pyrazol-4-yl)phenyl)-1H-pyrazol-5-yl)-2-fluorobenzonitrile 2,2,2-trifluoroacetate] | < 0.5 µM |  |
| < 0.5 µM |  | CN1CCN(c2ccc(-n3nc(C(=O)N4CCC[C@@H](N)C4)cc3-c3ccc(C#N)c(F)c3)c(F)c2)CC1=O [Example 68, (R)-4-(3-(3-aminopiperidine-1-carbonyl)-1-(2-fluoro-4-(4-methyl-3-oxopiperazin-1-yl)phenyl)-1H-pyrazol-5-yl)-2-fluorobenzonitrile] | < 0.5 µM |  |
| < 0.5 µM |  | N#Cc1ccc(-c2cc(C(=O)N3CCC[C@@H](N)C3)nn2-c2ccc(N3CCC(OCCCO)CC3)cc2)cc1F [Example 69, (R)-4-(3-(3-Aminopiperidine-1-carbonyl)-1-(4-(4-(3-hydroxypropoxy)piperidin-1-yl)phenyl)-1H-pyrazol-5-yl)-2-fluorobenzonitrile 2,2,2-trifluoroacetate] | < 0.5 µM |  |
| < 0.5 µM |  | N#Cc1ccc(-c2cc(C(=O)N3CCC[C@@H](N)C3)nn2-c2ccc(N3CCS(=O)(=O)CC3)cc2)cc1F [Example 71, (R)-4-(3-(3-aminopiperidine-1-carbonyl)-1-(4-(1,1-dioxidothiomorpholino)phenyl)-1H-pyrazol-5-yl)-2-fluorobenzonitrile 2,2,2-trifluoroacetate] | < 0.5 µM |  |
| < 0.5 µM |  | N#Cc1ccc(-c2cc(C(=O)N3CCC[C@@H](N)C3)nn2-c2ccc(-c3cnc4c(c3)OCCO4)cc2)cc1F [Example 84, (R)-4-(3-(3-aminopiperidine-1-carbonyl)-1-(4-(2,3-dihydro-[1,4]dioxino[2,3-b]pyridin-7-yl)phenyl)-1H-pyrazol-5-yl)-2-fluorobenzonitrile 2,2,2-trifluoroacetate] | < 0.5 µM |  |
| < 0.5 µM |  | N#Cc1ccc(-c2cc(C(=O)N3CCC[C@@H](N)C3)nn2-c2ccc(-c3ccc4c(c3)OCCO4)cc2)cc1F [Example 85, (R)-4-(3-(3-aminopiperidine-1-carbonyl)-1-(4-(2,3-dihydrobenzo[b][1,4]dioxin-6-yl)phenyl)-1H-pyrazol-5-yl)-2-fluorobenzonitrile 2,2,2-trifluoroacetate] | < 0.5 µM |  |
| > 10 µM | > 10 µM | COc1ccc(-n2cc(C(=O)N3CCC(N)CC3)c(-c3ccc(C#N)cc3)n2)cc1 [Example 86, 4-(4-(4-aminopiperidine-1-carbonyl)-1-(4-methoxyphenyl)-1H-pyrazol-3-yl)benzonitrile] |  |  |

| Compound | IC50 (LSD1) | IC50 (MV4;11 cells; [2]) | IC50 (MV4;11 cells; [1]) | IC50 (MV4;11 cells; MV4;11 cells, Day 10 (re-seeded at Day 5 with fresh compound), 10-point dose curve 0 to 50 μM, read-out: Cell Titer Glo IC50 (10 d)) |
| --- | --- | --- | --- | --- |
| COP(=O)(OC)OCCCOC1CCN(c2ccc(-n3nc(C(=O)N4CCC[C@@H](N)C4)cc3-c3ccc(C#N)c(F)c3)cc2)CC1 [Example 70, (R)-3-((1-(4-(3-(3-aminopiperidine-1-carbonyl)-5-(4-cyano-3-fluorophenyl)-1H-pyrazol-1-yl)phenyl)piperidin-4-yl)oxy)propyl dimethyl phosphate 2,2,2-trifluoroacetate] | < 0.5 µM |  |  | < 0.5 µM |
